The values that follow are results of earlier work, collected in the CATMoS acute toxicity set (Mansouri et al. 2021).

Molecules are shown by their SMILES. “And” between values parts separate entries of the source, which are not always exact repeats. Equal entries are not always repeated.

The data set in a line: rat acute oral toxicity. Particulars: in vivo.
For `CC(=O)Oc1cccc(Oc2ccc(C(F)(F)F)cc2Cl)c1`, the LD50 is 2500 mg/kg.
On to `CC1(C)OCC(CO)O1` (configuration not stated), for which the 50% lethal dose (LD50) is 7000 mg/kg.
Take `CCCSP(=O)(OC)OC`: the LD50 was 9.4 mg/kg.
In the case of `COc1ccc(C)cc1NC(C)=O`, the LD50 is 2240 mg/kg.
For `O=S(=O)(Cl)c1ccccc1Cl`, the median lethal dose (LD50) is 7500 mg/kg.
As for `c1cncc(C2=NCCC2)c1`, the median lethal dose (LD50) is 1880 mg/kg.
For `CC(=O)Nc1ccc(/N=N/c2c(S(=O)(=O)O)cc3cc(S(=O)(=O)O)cc(NC(C)=O)c3c2O)cc1`, the LD50 was 23200 mg/kg.
Consider `Nc1ccc(Cl)cc1[N+](=O)[O-]`, for which the LD50 is 400 mg/kg.
`OCP(CO)CO`: the median lethal dose (LD50) is 178 mg/kg.
Consider `CCCSP(=O)(OCC)Oc1ccc(Cl)cc1Cl` (configuration not stated), for which the 50% lethal dose (LD50) is 320 mg/kg.
For `C1=CCC=C1`, the LD50 was 113 mg/kg.
As for `C=CCOC1=NS(=O)(=O)c2ccccc21`, the LD50 was 2030 mg/kg.
`C[C@H](CN1CCCC1)C(=O)c1ccc(C(F)(F)F)cc1`: the 50% lethal dose (LD50) is 525 mg/kg.
In the case of `CCOc1ccc([N+](=O)[O-])cc1`, the LD50 is 3300 mg/kg.
In the case of `O=C(c1ccc2ccccc2n1)N1CCN=C1Nc1c(Cl)cccc1Cl`, the 50% lethal dose (LD50) is 44 mg/kg.
Consider `CCCCCCCCCCCC(=O)OCCSC#N`, for which the 50% lethal dose (LD50) was 500 mg/kg.
Regarding `O=C(O)CCCCCC(=O)O`, the LD50 was 7000 mg/kg.
On to `COC1CC2CC1C1CC(C=O)CC21` (configuration not stated), for which the median lethal dose (LD50) was 2800 mg/kg.
As for `CCCN(CCC)CCCCCCCCNC(=O)Oc1ccc2c(c1)[C@]1(C)CCN(C)[C@@H]1N2C`, the LD50 is 18.3 mg/kg.
For `CC(C)CCCC(C)NN` (configuration not stated), the LD50 was 108 mg/kg.
Take `CCC1=CSC(S)N1` (configuration not stated): the 50% lethal dose (LD50) was 35 mg/kg.
Turning to `Cc1cccc(N2CCN(CCC(O)c3ccc4c(c3)CCC(=O)N4)CC2)c1C` (configuration not stated), the LD50 was 500 mg/kg.
Consider `CN(C)c1ccc(N=Nc2ccccc2)cc1`, for which the LD50 was 200 mg/kg.
With `c1cc2c(c(NC3=NCCN3)c1)CCCC2`, the LD50 was 190 mg/kg.
For the compound `NC(CO)(CO)CO`, the median lethal dose (LD50) was 5900 mg/kg.
For `O=CC(Br)=Cc1ccccc1`, the LD50 is 1450 mg/kg.
As for `CCOc1ccc2c(OS(=O)(=O)O)c(-c3sc4cc(OCC)ccc4c3OS(=O)(=O)O)sc2c1`, the median lethal dose (LD50) is 6700 mg/kg.
Consider `CN(C)S(=O)(=O)CCCCNC(=O)N(CCCl)N=O`, for which the LD50 was 250 mg/kg.
Consider `CCn1c2ccccc2c2cc(N)ccc21`, for which the median lethal dose (LD50) is 144 mg/kg and 234 mg/kg.
`Cn1c2c(c3cc(N)ccc31)CCCC2`: the LD50 is 229 mg/kg.
`COc1cc(C(=O)N2CCCCCCC2)cc(OC)c1OC`: the 50% lethal dose (LD50) was 130 mg/kg.
`ClC1=C(Cl)C2(Cl)C3CCC4C(CCC3C1(Cl)C2(Cl)Cl)C1(Cl)C(Cl)=C(Cl)C4(Cl)C1(Cl)Cl` (configuration not stated): the LD50 was 25000 mg/kg.
`CCOP(=S)(OCC)N1C(=O)c2ccccc2C1=O`: the LD50 is 4930 mg/kg.
Take `C=CCNP(=O)(OC=C(Cl)Cl)OC1CCCCC1` (configuration not stated): the median lethal dose (LD50) is 100 mg/kg.
`Cc1cccc(N2CCN(CC=Cc3ccc4c(c3)CCC(=O)N4Cc3ccccc3)CC2)c1`: the median lethal dose (LD50) is 500 mg/kg.
For the compound `Cc1cc(Cl)ccc1NC(=S)N(C)C`, the LD50 was 2500 mg/kg.
Regarding `N#CC(C#N)=C1SCS1`, the LD50 was 75 mg/kg.
For `COc1ccc2c3c1O[C@H]1C[C@@H](O)C=C[C@@]31CCN(C)C2`, the LD50 is 75 mg/kg.
With `c1ccc(Nc2ccc(Nc3ccccc3)cc2)cc1`, the LD50 is 2370 mg/kg.
As to `CC1C(C)(C)C2=C(c3ncncc3CC2)C1(C)C` (configuration not stated), the 50% lethal dose (LD50) was 500 mg/kg.
For `CC(C)/N=C(\N)NC(C)C`, the LD50 is 2880 mg/kg.
On to `CN(C)Cc1ccccc1`, for which the LD50 was 265 mg/kg.
For the compound `CC(C)Nc1ccccc1`, the LD50 was 560 mg/kg.
For `O=C1OCCC1N(C(=O)C1CC1)c1cccc(Cl)c1` (configuration not stated), the 50% lethal dose (LD50) was 174 mg/kg.
Consider `CC(=O)Nc1cc(Cl)c([N+](=O)[O-])cc1Cl`, for which the LD50 is 2830 mg/kg.
Take `NCCOCCN`: the 50% lethal dose (LD50) was 961 mg/kg.
For the compound `ONc1ccccc1`, the 50% lethal dose (LD50) is 100 mg/kg.
Consider `COCC(O)Cn1ccnc1[N+](=O)[O-]` (configuration not stated), for which the 50% lethal dose (LD50) is 2130 mg/kg.
Take `Cc1ccc2ccccc2c1`: the LD50 is 1630 mg/kg.
As to `COC(=O)c1ccc(C(=O)OC)cc1`, the median lethal dose (LD50) is 4390 mg/kg.
Take `CC(CC(c1ccccc1)c1ccccc1)NC(C)(C)C` (configuration not stated): the LD50 was 465 mg/kg.
As for `CCOC(=O)COc1ccc2c(C)c(CCN(CC)CC)c(=O)oc2c1Cl`, the median lethal dose (LD50) was 1250 mg/kg.
With `CNC(=O)ON=C1CSCCS1`, the LD50 was 15 mg/kg.
Consider `[SiH3]CCCCC(Cl)(Cl)Cl`, for which the 50% lethal dose (LD50) is 2340 mg/kg.
Regarding `COc1ccccc1OC1CCN(CCCC(=O)c2ccc(F)cc2)C1` (configuration not stated), the LD50 was 241 mg/kg.
For the compound `C=CC(=O)OCC(C)OCC(C)OCC(C)OC(=O)C=C` (configuration not stated), the 50% lethal dose (LD50) is 6200 mg/kg.
In the case of `O=[N+]([O-])c1ccc(C=Cc2ccc([N+](=O)[O-])cc2S(=O)(=O)O)c(S(=O)(=O)O)c1`, the median lethal dose (LD50) is 12600 mg/kg.
For `COP(=O)(OC)OC(=CCl)c1cc(Cl)c(Cl)cc1Cl`, the LD50 was 4000 mg/kg.
For the compound `C#CCN1CCC2=C(C1)c1c(O)cc(C(C)C(C)CCCCC)cc1OC2(C)C` (configuration not stated), the LD50 was 900 mg/kg.
As to `CCN(CC)C(=S)S`, the 50% lethal dose (LD50) was 1000 mg/kg.
Consider `NC(=S)Nc1cc(Cl)ccc1Cl`, for which the 50% lethal dose (LD50) is 300 mg/kg.
Regarding `Fc1ccc(Br)cc1`, the LD50 was 2700 mg/kg.
